Data on two molecules can be found in patent US10189865B1, “Gold(I) complexes, pharmaceutical compositions thereof, and methods of treating proliferative disorders” (King Fahd University of Petroleum and Minerals, priority 2018, dated 2019).

One may read the IC50 as the point on the concentration scale where inhibition reaches its midpoint.

Holding throughout (type): cell-based
Test [1] has as its system HCT15 (human colon cancer) cell line. As to the kind of experiment: MTT in vitro cytotoxicity assay, HCT15. To be noted: 24 h incubation with complex, three independent experiments, read-out: IC50 against HCT15. The procedure: (§1) The cells were seeded at 3×10^3 cells/well in 100 μL of Dulbecco's Modified Eagle's Medium (DMEM) containing 10% fetal bovine serum (FBS) in a 96-well tissue culture plate and incubated for 72 h at 37° C., 5% CO2 and 90% relative humidity in a CO2 incubator. After incubation, 100 μL of 100, 50, 25 and 12.5 μM solutions of cisplatin and gold(I) complexes prepared in Dulbecco's Modified Eagle's Medium (DMEM) was each added to the cells and the cultures were incubated for 24 h. The medium in the wells was casted off, and 100 μL of DMEM containing MTT (0.5 mg/mL) was added to the wells, which were subsequently incubated in the CO2 incubator at 37° C. in the dark for 4 h. After incubation, purple-colored formazan produced by the cells appeared as dark crystals in the bottom of the wells. The culture medium was carefully removed from each well to prevent disruption of the monolayer, and 100 μL of dimethyl sulfoxide (DMSO) was added in each well. The solution in the wells was thoroughly mixed to dissolve the formazan crystals which produced a purple solution. The absorbance of the 96 well-plates was measured at 570 nm with Labsystems Multiskan EX ELISA reader against a reagent blank. The experimental results were calculated as micro-molar concentration for 50% cell growth inhibition (IC50) of each drug. The MTT assay was carried out in three independent experiments, each in triplicate. […]

The subject of test [2] is A549 (human lung carcinoma) cell line. As to the kind of experiment: MTT in vitro cytotoxicity assay, A549. To be noted: 24 h incubation with complex, three independent experiments, read-out: IC50 against A549. The procedure:
as §1

Test [3] has as its system MCF7 (human breast adenocarcinoma) cell line. In words: MTT in vitro cytotoxicity assay, MCF7. To be noted: 24 h incubation with complex, three independent experiments, read-out: IC50 against MCF7. The procedure:
as §1

With `N.N.[Cl][Pt][Cl]` [Cisplatin, cisplatin, reference compound], the IC50 in test [1] was determined as 33 ± 2 µM.

On to [Au(IPr)(ImSe]PF6 [Complex (II)], for which the figures for the IC50 in test [1], in test [2] and in test [3] were 33 ± 1 µM, 47 ± 1 µM and 43 ± 2 µM, respectively.
